Measured values from patent US20260125382A1, “COMPOUNDS FOR INHIBITING OR DEGRADING CDK2 AND/OR CDK9 AND MEDICINAL USE THEREOF” (KOREA RESEARCH INSTITUTE OF CHEMICAL TECHNOLOGY, priority 2022, published 2026).

How the values were obtained:
CDK2 = target: T1, CDK2 (Homo sapiens, UniProt P24941); assay: CDK protein degradation activity (Western blotting), CDK2; format: cell-based; details: MDA-MB-231 cells, 16 hours, Western blot
T1 construct: endogenous in cells; host or cells: MDA-MB-231
In short: (§1)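 MDA-MB-231; cmpd 100 nM / 1 μM / 10 μM final vs DMSO, 16 h. Triton X-100 lysates (pH 7.5, phosphatase/protease inhibitors) → SDS-PAGE → Western blot, anti-CDK2, anti-CDK9, tubulin loading control; densitometry.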

CDK9 = target: T2, CDK9 (Homo sapiens, UniProt P50750); assay: CDK protein degradation activity (Western blotting), CDK9; format: cell-based; details: MDA-MB-231 cells, 16 hours, Western blot
T2 construct: endogenous in cells; host or cells: MDA-MB-231
T2 sequence (P50750 whole entry): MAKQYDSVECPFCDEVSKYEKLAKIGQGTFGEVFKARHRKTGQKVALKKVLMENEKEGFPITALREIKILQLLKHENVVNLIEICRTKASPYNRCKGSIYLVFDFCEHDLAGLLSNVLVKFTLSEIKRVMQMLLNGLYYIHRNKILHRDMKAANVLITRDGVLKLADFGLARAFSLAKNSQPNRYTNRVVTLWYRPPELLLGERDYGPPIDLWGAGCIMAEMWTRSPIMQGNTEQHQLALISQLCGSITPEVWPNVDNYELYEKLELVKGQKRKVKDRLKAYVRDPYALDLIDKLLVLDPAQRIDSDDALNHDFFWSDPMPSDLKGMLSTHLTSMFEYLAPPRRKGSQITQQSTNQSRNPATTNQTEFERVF
In short: as §1

## Cc1cccc(C(=O)NC2CC(n3cnc4c(Nc5ccc(N6CCN(C7CC8(CCN(C(=O)COc9ccc([C@@H]%10CCC(=O)NC%10=O)cc9)CC8)C7)CC6)cc5)ncnc43)C2)n1 (stereo partly drawn) [Compound 435, N-((1s,3s)-3-(6-((4-(4-(7-(2-(4-(2,6-dioxopiperidin-3-yl)phenoxy)acetyl)-7-azaspiro[3.5]nonan-2-yl)piperazin-1-yl)phenyl)amino)-9H-purin-9-yl)cyclobutyl)-6-methylpicolinamide]
CDK2
  Enzyme degradation CDK2 (% remaining) @ 0.1 μM: 40/40/40%
  Enzyme degradation CDK2 (% remaining) @ 1 μM: 40/40/40%
  Enzyme degradation CDK2 (% remaining) @ 10 μM: 40/40/40%
CDK9
  Enzyme degradation CDK9 (% remaining) @ 0.1 μM: 10/10/10%
  Enzyme degradation CDK9 (% remaining) @ 1 μM: 10/10/10%
  Enzyme degradation CDK9 (% remaining) @ 10 μM: 10/10/10%

## O=C1CC[C@H](N2C(=O)c3ccc(N4CC(C(=O)N5CCC(CN6CCN(c7ccc(Nc8ncnc9c8ncn9[C@H]8C[C@@H](NC(=O)c9cccc(C(F)(F)F)n9)C8)cc7)CC6)CC5)C4)cc3C2=O)C(=O)N1 [Compound 469, N-((1s,3s)-3-(6-((4-(4-((1-(1-(2-(2,6-dioxopiperidin-3-yl)-1,3-dioxoisoindolin-5-yl)azetidin-3-carbonyl)piperidin-4-yl)methyl)piperazin-1-yl)phenyl)amino)-9H-purin-9-yl)cyclobutyl)-6-(trifluoromethyl)picolinamide]
CDK2
  Enzyme degradation CDK2 (% remaining) @ 0.1 μM: 40/40/40%
  Enzyme degradation CDK2 (% remaining) @ 1 μM: 40/40/40%
  Enzyme degradation CDK2 (% remaining) @ 10 μM: 40/40/40%
CDK9
  Enzyme degradation CDK9 (% remaining) @ 0.1 μM: 0/0/0%
  Enzyme degradation CDK9 (% remaining) @ 1 μM: 0/0/0%
  Enzyme degradation CDK9 (% remaining) @ 10 μM: 0/0/0%

## O=C1CC[C@H](n2nnc3ccc(N4CCC(CN5CCN(c6ccc(Nc7ncnc8c7ncn8C7CC(NC(=O)c8c(Cl)cccc8Cl)C7)cc6)CC5)CC4)cc3c2=O)C(=O)N1 (stereo partly drawn) [Compound 371, 2,6-dichloro-N-((1s,3s)-3-(6-((4-(4-((1-(3-(2,6-dioxopiperidin-3-yl)-4-oxo-3,4-dihydrobenzo[d][1,2,3]triazin-6-yl)piperidin-4-yl)methyl)piperazin-1-yl)phenyl)amino)-9H-purin-9-yl)cyclobutyl)benzamide]
CDK2
  Enzyme degradation CDK2 (% remaining) @ 0.1 μM: 0/0/0%
  Enzyme degradation CDK2 (% remaining) @ 1 μM: 0/0/0%
  Enzyme degradation CDK2 (% remaining) @ 10 μM: 0/0/0%
CDK9
  Enzyme degradation CDK9 (% remaining) @ 0.1 μM: 0/0/0%
  Enzyme degradation CDK9 (% remaining) @ 1 μM: 0/0/0%
  Enzyme degradation CDK9 (% remaining) @ 10 μM: 0/0/0%

## O=C1CC[C@H](N2C(=O)c3ccc(N4CCN(CCC5CCN(c6ccc(Nc7ncnc8c7ncn8[C@H]7C[C@@H](NC(=O)Cc8ccccc8)C7)cc6)CC5)CC4)cc3C2=O)C(=O)N1 [Compound 338, N-((1s,3s)-3-(6-((4-(4-(2-(4-(2-(2,6-dioxopiperidin-3-yl)-1,3-dioxoisoindolin-5-yl)piperazin-1-yl)ethyl)piperidin-1-yl)phenyl)amino)-9H-purin-9-yl)cyclobutyl)-2-phenylacetamide]
CDK2
  Enzyme degradation CDK2 (% remaining) @ 0.1 μM: 10%
  Enzyme degradation CDK2 (% remaining) @ 1 μM: 0%
  Enzyme degradation CDK2 (% remaining) @ 10 μM: 0%
CDK9
  Enzyme degradation CDK9 (% remaining) @ 0.1 μM: 50%
  Enzyme degradation CDK9 (% remaining) @ 1 μM: 0%
  Enzyme degradation CDK9 (% remaining) @ 10 μM: 0%

## O=C1CC[C@@H](c2cccc(OCC(=O)N3CCC(CN4CCC(c5ccc(Nc6ncnc7c6ncn7C6CC(NC(=O)Cc7ccccc7)C6)cc5)CC4)CC3)c2)C(=O)N1 (stereo partly drawn) [Compound 282, N-((1s,3s)-3-(6-((4-(1-((1-(2-(3-(2,6-dioxopiperidin-3-yl)phenoxy)acetyl)piperidin-4-yl)methyl)piperidin-4-yl)phenyl)amino)-9H-purin-9-yl)cyclobutyl)-2-phenylacetamide]
CDK2
  Enzyme degradation CDK2 (% remaining) @ 0.1 μM: 10%
  Enzyme degradation CDK2 (% remaining) @ 1 μM: 20%
  Enzyme degradation CDK2 (% remaining) @ 10 μM: 20%
CDK9
  Enzyme degradation CDK9 (% remaining) @ 0.1 μM: 0/0/0%
  Enzyme degradation CDK9 (% remaining) @ 1 μM: 0/0/0%
  Enzyme degradation CDK9 (% remaining) @ 10 μM: 0/0/0%

## Cc1cccc(C(=O)NC2CC(n3cnc4c(NCc5cccc(N6CCN(c7cccc8c7C(=O)N([C@H]7CCC(=O)NC7=O)C8=O)CC6)c5)ncnc43)C2)n1 (stereo partly drawn) [Compound 126, N-((1s,3s)-3-(6-((3-(4-(2-(2,6-dioxopiperidin-3-yl)-1,3-dioxoisoindolin-4-yl)piperazin-1-yl)benzyl)amino)-9H-purin-9-yl)cyclobutyl)-6-methylpicolinamide]
CDK2
  Enzyme degradation CDK2 (% remaining) @ 0.1 μM: 80%
  Enzyme degradation CDK2 (% remaining) @ 1 μM: 70%
  Enzyme degradation CDK2 (% remaining) @ 10 μM: 70%
CDK9
  Enzyme degradation CDK9 (% remaining) @ 0.1 μM: 80%
  Enzyme degradation CDK9 (% remaining) @ 1 μM: 70%
  Enzyme degradation CDK9 (% remaining) @ 10 μM: 70%

## O=C1CC[C@H](N2C(=O)c3ccc(N4CCN(C5CC6(CCN(c7ccc(Nc8ncnc9c8ncn9[C@H]8C[C@@H](NC(=O)Cc9ccccc9)C8)cc7)CC6)C5)CC4)cc3C2=O)C(=O)N1 [Compound 335, N-((1s,3s)-3-(6-((4-(2-(4-(2-(2,6-dioxopiperidin-3-yl)-1,3-dioxoisoindolin-5-yl)piperazin-1-yl)-7-azaspiro[3.5]nonan-7-yl)phenyl)amino)-9H-purin-9-yl)cyclobutyl)-2-phenylacetamide]
CDK2
  Enzyme degradation CDK2 (% remaining) @ 0.1 μM: 20%
  Enzyme degradation CDK2 (% remaining) @ 1 μM: 10%
  Enzyme degradation CDK2 (% remaining) @ 10 μM: 10%
CDK9
  Enzyme degradation CDK9 (% remaining) @ 0.1 μM: 70%
  Enzyme degradation CDK9 (% remaining) @ 1 μM: 0%
  Enzyme degradation CDK9 (% remaining) @ 10 μM: 0%

## O=C1CC[C@@H](c2cccc(OCC(=O)N3CCC(CCCN4CCN(c5ccc(Nc6ncnc7c6ncn7C6CC(NC(=O)Cc7ccccc7)C6)cc5)CC4)CC3)c2)C(=O)N1 (stereo partly drawn) [Compound 259, N-((1s,3s)-3-(6-((4-(4-(3-(1-(2-(3-(2,6-dioxopiperidin-3-yl)phenoxy)acetyl)piperidin-4-yl)propyl)piperazin-1-yl)phenyl)amino)-9H-purin-9-yl)cyclobutyl)-2-phenylacetamide]
CDK2
  Enzyme degradation CDK2 (% remaining) @ 0.1 μM: 0/0/0%
  Enzyme degradation CDK2 (% remaining) @ 1 μM: 0/0/0%
  Enzyme degradation CDK2 (% remaining) @ 10 μM: 0/0/0%
CDK9
  Enzyme degradation CDK9 (% remaining) @ 0.1 μM: 0/0/0%
  Enzyme degradation CDK9 (% remaining) @ 1 μM: 0/0/0%
  Enzyme degradation CDK9 (% remaining) @ 10 μM: 0/0/0%

## O=C1CC[C@H](N2C(=O)c3ccc(N4CCC(C(=O)N5CCC(CN6CCN(c7ccc(Nc8ncnc9c8ncn9C8CC(NC(=O)Cc9ccccc9)C8)cc7)CC6)CC5)CC4)cc3C2=O)C(=O)N1 (stereo partly drawn) [Compound 330, N-((1s,3s)-3-(6-((4-(4-((1-(1-(2-(2,6-dioxopiperidin-3-yl)-1,3-dioxoisoindolin-5-yl)piperidin-4-carbonyl)piperidin-4-yl)methyl)piperazin-1-yl)phenyl)amino)-9H-purin-9-yl)cyclobutyl)-2-phenylacetamide]
CDK2
  Enzyme degradation CDK2 (% remaining) @ 0.1 μM: 60%
  Enzyme degradation CDK2 (% remaining) @ 1 μM: 60%
  Enzyme degradation CDK2 (% remaining) @ 10 μM: 40%
CDK9
  Enzyme degradation CDK9 (% remaining) @ 0.1 μM: 0/0/0%
  Enzyme degradation CDK9 (% remaining) @ 1 μM: 0/0/0%
  Enzyme degradation CDK9 (% remaining) @ 10 μM: 0/0/0%

## O=C1CCC(N2C(=O)c3cccc(OCC(=O)N4CCC5(CC4)CC(N4CCN(c6ccc(Nc7ncnc8c7ncn8[C@H]7C[C@@H](NC(=O)Cc8ccccc8)C7)cc6)CC4)C5)c3C2=O)C(=O)N1 (stereo partly drawn) [Compound 206, N-((1s,3s)-3-(6-((4-(4-(7-(2-((2-(2,6-dioxopiperidin-3-yl)-1,3-dioxoisoindolin-4-yl)oxy)acetyl)-7-azaspiro[3.5]nonan-2-yl)piperazin-1-yl)phenyl)amino)-9H-purin-9-yl)cyclobutyl)-2-phenylacetamide]
CDK2
  Enzyme degradation CDK2 (% remaining) @ 0.1 μM: 20%
  Enzyme degradation CDK2 (% remaining) @ 1 μM: 20%
  Enzyme degradation CDK2 (% remaining) @ 10 μM: 10%
CDK9
  Enzyme degradation CDK9 (% remaining) @ 0.1 μM: 0/0/0%
  Enzyme degradation CDK9 (% remaining) @ 1 μM: 0/0/0%
  Enzyme degradation CDK9 (% remaining) @ 10 μM: 0/0/0%

## O=C1CCC(N2C(=O)c3cc(F)c(N4CCC(N5CCN(c6ccc(Nc7ncnc8c7ncn8[C@H]7C[C@@H](NC(=O)Cc8ccccc8)C7)cc6)CC5)CC4)cc3C2=O)C(=O)N1 (stereo partly drawn) [Compound 333, N-((1s,3s)-3-(6-((4-(4-(1-(2-(2,6-dioxopiperidin-3-yl)-6-fluoro-1,3-dioxoisoindolin-5-yl)piperidin-4-yl)piperazin-1-yl)phenyl)amino)-9H-purin-9-yl)cyclobutyl)-2-phenylacetamide]
CDK2
  Enzyme degradation CDK2 (% remaining) @ 0.1 μM: 50%
  Enzyme degradation CDK2 (% remaining) @ 1 μM: 10%
  Enzyme degradation CDK2 (% remaining) @ 10 μM: 10%
CDK9
  Enzyme degradation CDK9 (% remaining) @ 0.1 μM: 50%
  Enzyme degradation CDK9 (% remaining) @ 1 μM: 0%
  Enzyme degradation CDK9 (% remaining) @ 10 μM: 0%
